Experimental data published in patent US12428455B2, “Dominant negative CEBPB and CEBPD proteins and methods of use for decreasing viability of neoplastic cells” (The Trustees of Columbia University in the City of New York, priority 2018, dated 2025).
No end group written: not given here.

Key:
Format in all cases: cell-based
[1] = system: MDA-MB-231 breast cancer cells; experiment: Cell number after peptide treatment, MDA-MB-231; settings: 6 days, 0 μM to 50 μM; stock without BSA
Protocol: (§1) Replicate cultures were exposed to the peptides the for 6 days at the indicated concentrations. Stock solutions of the peptides were prepared in buffer without added bovine serum albumin (BSA).
(§2) Replicate cultures of HCT116, MDA-MB 231, MCF7, and T98G cells were exposed to a 50/50 by concentration mixture of CP-DN-CEBPB and CP-DN-CEBPD for 6 days at doses of 0 μM to 50 μM. Stock solutions of the peptides were prepared in buffer without added bovine serum albumin (BSA).
(§3) Replicate cultures of T98G, HCT116, MDA-MB 231, and MCF7 cells were exposed to CP-DN-CEBPB, CP-DN-CEBPD, or a CP-DN-CEBPD in which heptad repeat leucine residues were mutated to glycine residues for 6 days at doses of 0 μM to 50 μM. Stock solutions of the peptides were prepared in buffer without added bovine serum albumin (BSA).

[2] = system: MCF7 breast cancer cells; experiment: Cell number after peptide treatment, MCF7; settings: 6 days, 0 μM to 50 μM; stock without BSA
Protocol: as §1, §2, §3

[3] = system: U251 gliblastoma multiforme cells; experiment: Cell number after peptide treatment, U251; settings: 6 days, 0 μM to 50 μM; stock without BSA
Protocol: as §1

[4] = system: MCF10A non-cancer human breast epithelial cells; experiment: Cell number after peptide treatment, MCF10A; settings: 6 days, 0 μM to 50 μM; stock without BSA
Protocol: (§4) Replicate cultures of HIEC-6 non-cancer human intestinal epithelial cells, MCF10A non-cancer human breast epithelial cells, or normal human astrocytes were exposed to CP-DN-CEBPB or CP-DN-CEBPD, for 6 days at doses of 0 μM to 50 μM. […] Stock solutions of the peptides were prepared in buffer without added bovine serum albumin (BSA).

[5] = system: normal human astrocytes; experiment: Survival after peptide treatment, astrocytes; settings: 6 days, 0 μM to 50 μM; stock without BSA
Protocol: as §4

[6] = system: MDA-MB 231 cells; experiment: Colony forming activity on culture plates, MDA-MB 231; settings: 6 days; doses 0.05, 0.5 and 5 μM
Protocol: T98G (FIG. 21A), MDA-MB 231 (FIG. 21B), and HCT116 (FIG. 21C) cells were exposed to CP-DN-CEBPB and CP-DN-CEBPD for 6 days at doses of 0.05 μM 0.5 μM, and 5 μM while growing in soft agar. Growth was inhibited by does as low as 0.5 μM. T98G (FIG. 21D), MDA-MB 231 (FIG. 21E), and HCT116 (FIG. 21F) cells were exposed to CP-DN-CEBPB and CP-DN-CEBPD for 6 days at doses of 0.05 μM 0.5 μM, and 5 μM while growing on culture plates. Growth was inhibited by does as low as 0.5 μM.

[7] = system: MDA-MB-231 cells; experiment: Apoptotic nuclei, propidium iodide flow cytometry, MDA-MB-231; settings: 20 μM, 3 days, vs untreated cells
Protocol: (§5) MDA-MB-231, MCF7, HCT116 and T98G cancer cell lines were treated for 3 days with 20 μM CP-dn-CEBPB and CP-dn-CEBPD peptides from stock solutions prepared without additives. Cultures were stained with propidium iodide and assessed for proportion of cells with apoptotic nuclei by flow cytometry.

[8] = system: T98G cells; experiment: Apoptotic nuclei, propidium iodide flow cytometry, T98G; settings: 20 μM, 3 days, vs untreated cells
Protocol: as §5

[9] = system: MDA-MB-231 cells; experiment: Combination with paclitaxel, cell number, MDA-MB-231; settings: 1 nM or 5 nM paclitaxel and 3, 10 or 20 μM peptide, 6 days
Protocol: Replicate cultures of T98G, MDA-MB 231, and MCF7 cells were treated with 1 nM or 5 nM paclitaxel and 3 μM, 10 μM, or 20 μM CP-dn-CEBPB and CP-dn-CEBPD peptides, maintained for 6 days, and then assessed for cell number. The bar graphs of FIGS. 26A (T98G, CP-dn-CEBPB), 26C (T98G, CP-dn-CEBPBD, 26E (MDA-MB-231, CP-dn-CEBPBD), 26G (MDA-MB-231, CP-dn-CEBPD), 26I (MCF7, CP-dn-CEBPBB), and 26K (MCF7, CP-dn-CEBPBD) show relative cell numbers for each condition as compared to untreated controls. The line graphs of FIGS. 26B (T98G, CP-dn-CEBPB), 26D (T98G, CP-dn-CEBPBD), 26F (MDA-MB-231, CP-dn-CEBPB), 26H (MDA-MB-231, CP-dn-CEBPD), 26J (MCF7, CP-dn-CEBPB), and 26L (MCF7 CP-dn-CEBPBD) show the response as normalized in each case so that 100 represents the relative number of surviving cells that received the indicated level of paclitaxel, but no peptide treatment. Calculated combination indices (CI) were as follows: MCF7: CI=0.41±0.04 for CP-dn-CEBPB; 0.44±0.04 for CP-dn-CEBPD; MDA-MB-231: 0.74±0.03 for CP-dn-CEBPB; 0.74±0.05 for CP-dn-CEBPD; T98G: CI=0.84±0.06 for CP-dn-CEBPB and 0.75±0.07 for CP-dn-CEBPD.

[10] = system: T98G cells; experiment: Combination with chloroquine, cell number, T98G; settings: 5 μM or 10 μM chloroquine and 3 μM or 10 μM peptide, 6 days
Protocol: Replicate cultures of T98G, MDA-MB 231, and HCT116 cells were treated with 5 μM or 10 μM chloroquine and 3 μM or 10 μM CP-dn-CEBPB and CP-dn-CEBPD peptides, maintained for 6 days, and then assessed for cell number. The bar graphs of FIGS. 29A (T98G, CP-dn-CEBPB), 29C (T98G, CP-dn-CEBPBD, 29E (MDA-MB-231, CP-dn-CEBPBD), 29G (MDA-MB-231, CP-dn-CEBPD), 29I (HCT116, CP-dn-CEBPBB), and 26K (HCT116, CP-dn-CEBPBD) show relative cell numbers for each condition as compared to untreated controls. The line graphs of FIGS. 26B (T98G, CP-dn-CEBPB), 26D (T98G, CP-dn-CEBPBD), 26F (MDA-MB-231, CP-dn-CEBPB), 26H (MDA-MB-231, CP-dn-CEBPD), 26J (HCT116, CP-dn-CEBPB), and 26L (HCT116 CP-dn-CEBPBD) show the response as normalized in each case so that 100 represents the relative number of surviving cells that received the indicated level of chloroquine, but no peptide treatment. The results ranged from near-additive (HCT116 cells, CI=0.92±0.08 for CP-dn-CEBPB and 0.87±0.07 for CP-dn-CEBPD) to apparent synergy (T98G, CI=0.56±0.06 for CP-dn-CEBPB and 0.75±0.03 for CP-dn-CEBPD; MDA-MB-261, CI=0.59±0.11 for CP-dn-CEBPB and 0.47±0.05 for CP-dn-CEBPD).

Sequence | growth and survival / numbers of MDA-MB-231 cells [1] | growth and survival / numbers of MCF7 cells [2] | growth and survival of U251 cells [3] | number of MCF10A cells [4] | survival of astrocytes [5] | lowest dose at which growth was inhibited, culture plates [6] | proportion of cells with apoptotic nuclei [7] | proportion of cells with apoptotic nuclei [8] | combination index (CI) with paclitaxel [9] | CI with chloroquine [10]
RQIKIWFQNRRMKWKKLVELSAENEKLHQRVEQLTRDLAGLRQFFK [CP-DN-CEBPD] | decrease in growth and survival | decrease in growth and survival | decrease in growth and survival | did not cause a dose-dependent decrease | neither CP-DN-CEBPB or CP-DN-CEBPD affected survival of astrocyte | 0.5 µM | increased apoptotic cell death | increased apoptotic cell death | 0.74±0.05 | 0.75±0.03
RQIKIWFQNRRMKWKKLETQHKVLELTAENERLQKKVEQLSRELSTLRNLFKQL [CP-DN-CEBPB] | decrease in growth and survival | decrease in growth and survival | decrease in growth and survival | did not cause a dose-dependent decrease | neither CP-DN-CEBPB or CP-DN-CEBPD affected survival of astrocyte | 0.5 µM | increased apoptotic cell death | increased apoptotic cell death | 0.74±0.03 | 0.56±0.06
